Calls of active or inactive are those of the source. Peptide text beside a SMILES is read from it. * marks the point of attachment. Boc = CC(C)(C)OC(=O)*
Assays:
[1] = target: Cytochrome P450 2C9 (Homo sapiens, UniProt P11712)
[2] = target: T1, Cytochrome P450 1A2 (Homo sapiens, UniProt P05177);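 also: PubChem cytochrome P450 panel assay, CYP1A2 panel member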
T1 sequence (P05177 whole entry): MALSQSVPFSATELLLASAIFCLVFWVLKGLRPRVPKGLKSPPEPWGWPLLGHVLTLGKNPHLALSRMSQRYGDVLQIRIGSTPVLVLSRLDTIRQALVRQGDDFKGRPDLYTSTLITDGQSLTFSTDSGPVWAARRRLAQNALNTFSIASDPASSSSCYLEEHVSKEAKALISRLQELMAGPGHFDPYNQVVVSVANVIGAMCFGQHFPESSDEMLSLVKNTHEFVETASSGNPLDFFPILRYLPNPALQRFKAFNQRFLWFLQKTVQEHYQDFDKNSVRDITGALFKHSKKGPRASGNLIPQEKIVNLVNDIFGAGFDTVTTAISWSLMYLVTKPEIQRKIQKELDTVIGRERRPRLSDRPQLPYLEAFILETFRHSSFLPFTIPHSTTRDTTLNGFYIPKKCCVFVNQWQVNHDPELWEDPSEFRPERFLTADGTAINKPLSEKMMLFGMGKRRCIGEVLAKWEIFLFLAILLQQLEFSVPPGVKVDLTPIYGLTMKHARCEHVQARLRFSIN

[3] = target: Cytochrome P450 2C19 (Homo sapiens, UniProt P33261); assay: Cytochrome panel assay with activity outcomes. Panel member name: p450-cyp2c19 Compounds with AC50 equal or less than 10 uM are considered active; format: functional
Cytochrome P450 2C19, sequence (P33261 whole entry): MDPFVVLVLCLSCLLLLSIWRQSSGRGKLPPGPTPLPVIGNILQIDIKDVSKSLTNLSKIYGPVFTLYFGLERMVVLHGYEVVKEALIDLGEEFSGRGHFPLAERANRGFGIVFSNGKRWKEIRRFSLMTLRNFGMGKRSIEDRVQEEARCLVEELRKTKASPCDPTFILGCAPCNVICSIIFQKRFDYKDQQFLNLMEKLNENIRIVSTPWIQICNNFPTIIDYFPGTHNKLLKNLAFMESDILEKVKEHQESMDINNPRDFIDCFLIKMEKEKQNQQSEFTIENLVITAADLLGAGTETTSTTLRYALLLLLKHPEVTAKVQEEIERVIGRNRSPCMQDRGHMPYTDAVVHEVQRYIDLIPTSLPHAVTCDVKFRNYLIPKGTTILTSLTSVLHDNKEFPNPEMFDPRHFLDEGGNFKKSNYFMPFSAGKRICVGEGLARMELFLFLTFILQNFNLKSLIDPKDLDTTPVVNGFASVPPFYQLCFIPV

[4] = target: Cytochrome P450 3A4 (Homo sapiens, UniProt P08684);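 also: CYP3A4 tested as one member of a cytochrome P450 panel screen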
Cytochrome P450 3A4, sequence (P08684 whole entry): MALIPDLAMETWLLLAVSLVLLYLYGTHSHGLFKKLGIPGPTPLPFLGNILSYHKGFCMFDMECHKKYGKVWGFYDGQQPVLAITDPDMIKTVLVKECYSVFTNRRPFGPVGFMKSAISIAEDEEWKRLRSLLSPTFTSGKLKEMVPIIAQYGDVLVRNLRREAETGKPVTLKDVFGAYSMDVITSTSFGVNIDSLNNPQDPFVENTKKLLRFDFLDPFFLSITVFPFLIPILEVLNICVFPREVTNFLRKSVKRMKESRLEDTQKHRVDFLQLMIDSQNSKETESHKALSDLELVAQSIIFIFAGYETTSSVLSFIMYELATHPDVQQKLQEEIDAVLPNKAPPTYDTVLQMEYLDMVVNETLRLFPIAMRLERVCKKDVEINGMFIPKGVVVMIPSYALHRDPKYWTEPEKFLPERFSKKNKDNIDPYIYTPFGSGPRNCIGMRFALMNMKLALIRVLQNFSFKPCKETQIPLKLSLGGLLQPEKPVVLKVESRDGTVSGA

[5] = test system: Streptococcus sp. 'group A'; assay: Streptococcus pyogenes SK(-)GAS viability under kanamycin – luminescence, BacTiterGlo, confirmation, counter-screen for streptokinase expression inhibitor project, dose response (AID 1900); format: functional, organism-based
[6] = target: T2, Streptokinase A (Streptococcus pyogenes serotype M1, UniProt P10520); assay: viability-normalized secreted streptokinase activity reduction – plasminogen activation absorbance, OD405, dose response (AID 1914); format: functional, Streptococcus pyogenes M1 GAS;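 also: secreted streptokinase activity via plasminogen activation per viability signal from cell pellet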
T2 sequence (P10520 whole entry): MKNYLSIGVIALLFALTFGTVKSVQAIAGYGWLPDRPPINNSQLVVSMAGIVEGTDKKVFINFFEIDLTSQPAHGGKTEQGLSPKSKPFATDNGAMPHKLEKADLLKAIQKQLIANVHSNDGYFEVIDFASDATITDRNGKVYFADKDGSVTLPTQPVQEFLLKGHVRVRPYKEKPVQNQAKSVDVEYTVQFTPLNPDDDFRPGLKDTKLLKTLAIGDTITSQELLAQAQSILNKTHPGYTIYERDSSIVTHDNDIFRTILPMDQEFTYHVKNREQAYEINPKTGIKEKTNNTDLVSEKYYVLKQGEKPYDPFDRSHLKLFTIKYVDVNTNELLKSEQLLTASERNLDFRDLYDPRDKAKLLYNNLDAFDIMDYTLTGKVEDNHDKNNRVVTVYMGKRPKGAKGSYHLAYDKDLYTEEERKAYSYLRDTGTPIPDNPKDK

[7] = test system: Streptococcus; assay: GAS UMAA2166 growth inhibition – luminescence, BacTiterGlo, counter-screen for streptokinase expression inhibitor project, dose response (AID 1915); format: functional, organism-based;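 also: potency for reduction of bacterial viability or growth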
[8] = Luminescence Cell-Based Dose Retest to Confirm Inhibitors of Cancer Stem Cells. [Related pubchem assays (depositor defined):AID2717, AID2721]; format: functional; settings: Homo sapiens
[9] = target: T3, Corticotropin-releasing factor receptor 2/Corticotropin-releasing factor-binding protein (Homo sapiens, UniProt P24387+Q13324); assay: Dose Response confirmation of uHTS hits for small molecule antagonists of the CRF-binding protein and CRF-R2 receptor complex.; format: functional; settings: read-out: IC50_Mean
T3 sequence (Q13324 whole entry): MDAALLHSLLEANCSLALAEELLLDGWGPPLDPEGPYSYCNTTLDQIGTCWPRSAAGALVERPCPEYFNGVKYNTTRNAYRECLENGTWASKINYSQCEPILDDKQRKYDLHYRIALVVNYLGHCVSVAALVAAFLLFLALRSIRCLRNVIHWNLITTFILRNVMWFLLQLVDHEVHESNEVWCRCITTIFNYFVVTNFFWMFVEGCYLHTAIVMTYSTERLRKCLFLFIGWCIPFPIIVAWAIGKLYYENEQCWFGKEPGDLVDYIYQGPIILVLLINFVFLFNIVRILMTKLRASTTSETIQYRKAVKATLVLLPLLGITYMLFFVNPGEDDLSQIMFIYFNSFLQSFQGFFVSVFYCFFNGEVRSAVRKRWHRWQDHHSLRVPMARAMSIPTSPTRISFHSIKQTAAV
T3 sequence (P24387 whole entry): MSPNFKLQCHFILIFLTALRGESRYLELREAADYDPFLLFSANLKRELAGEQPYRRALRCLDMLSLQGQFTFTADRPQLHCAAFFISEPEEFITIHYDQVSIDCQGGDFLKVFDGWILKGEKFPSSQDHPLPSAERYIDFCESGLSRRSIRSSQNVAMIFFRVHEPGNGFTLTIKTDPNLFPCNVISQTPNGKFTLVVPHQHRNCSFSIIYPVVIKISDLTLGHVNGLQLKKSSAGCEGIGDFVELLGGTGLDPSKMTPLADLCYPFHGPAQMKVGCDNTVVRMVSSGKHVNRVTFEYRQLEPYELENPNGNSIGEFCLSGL

[10] = target: T3, Corticotropin-releasing factor receptor 2/Corticotropin-releasing factor-binding protein; assay: activators of CRF receptor 2 with binding protein – uHTS hits, confirmation (AID 602473); format: functional; settings: read-out: EC50_Mean
[11] = Trypanosoma cruzi growth suppression in host cells – NIH3T3 host cells, beta-gal luminescence, confirmation (AID 2044); format: functional, cell-based;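 also: intracellular parasites grown in NIH/3T3 mouse fibroblasts as host cells; luminescent beta-galactosidase reporter signal from transgenic T. cruzi replicating inside host cells; inhibitors lower the luminescence signal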
[12] = NIH3T3 cell viability loss – ATP luminescence, mouse fibroblasts, counter-screen, dose response (AID 2010); format: functional, cell-based;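 also: cells exposed to compound for about 90 hours before reading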

Cytochrome P450 2C9, sequence (P11712 whole entry): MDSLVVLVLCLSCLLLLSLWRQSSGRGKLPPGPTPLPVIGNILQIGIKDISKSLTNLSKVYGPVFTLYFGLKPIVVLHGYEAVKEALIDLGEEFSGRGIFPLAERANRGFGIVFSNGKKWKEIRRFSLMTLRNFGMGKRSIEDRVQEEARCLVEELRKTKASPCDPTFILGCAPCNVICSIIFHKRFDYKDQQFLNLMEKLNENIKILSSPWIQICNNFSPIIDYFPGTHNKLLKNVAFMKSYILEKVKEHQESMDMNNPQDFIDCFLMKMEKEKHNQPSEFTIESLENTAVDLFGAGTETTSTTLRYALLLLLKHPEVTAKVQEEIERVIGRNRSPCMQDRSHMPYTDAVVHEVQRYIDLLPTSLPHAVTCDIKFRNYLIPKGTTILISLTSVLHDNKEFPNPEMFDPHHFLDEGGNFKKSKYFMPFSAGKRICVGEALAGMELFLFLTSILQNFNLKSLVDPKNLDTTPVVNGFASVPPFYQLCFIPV

SMILES	AC50 [1]	AC50 [2]	AC50 ([3]; read-out: AC50)	further results
CC(=O)Nc1cccc(C(=O)OCc2ccc(C(=O)Oc3ccc(Cl)cc3)cc2)c1	1.12 µM (inconclusive)			
Oc1cc(O)c2c(c1)O[C@H](c1ccc(O)c(O)c1)[C@@H](O)[C@@H]2c1c(O)cc(O)c2c1O[C@@H](c1ccc(O)c(O)c1)[C@H](O)C2		2.51 µM (inconclusive)		
O=S(=O)(N=C(Nc1ccccn1)c1ccccc1)c1ccccc1		14.1 µM (inconclusive)	15.8 µM (inconclusive)	AC50 [4]: 28.2 µM (inconclusive)
O=C(COc1ccc([N+](=O)[O-])cc1)NCc1ccccc1	17.8 µM (inconclusive)		7.94 µM (inconclusive)	
O=C(CN1c2ccccc2Sc2ccccc21)NNC(=O)Nc1ccc(Cl)c(Cl)c1				EC50 [5]: 2.45 µM (active); EC50 [6]: > 150 µM (not active); EC50 [7]: 5.49 µM (active); AC50 [8]: 3.05 µM (active)
COCCn1c(=O)c(-c2ccc(F)cc2)nc2cnc(Oc3ccccc3)nc21	10 µM (inconclusive)			AC50 [4]: 15.8 µM (inconclusive)
CC(=O)c1c(N2CCCCC2)nc(=S)n(Cc2ccccc2)c1C				IC50 [9]: > 47.1 µM (inactive); EC50 [10]: > 53 µM (inactive)
Nc1cc(N)nc(SCC(=O)NNC(=O)c2ccc(Cl)cc2)n1	28.2 µM (inconclusive)	15.8 µM (inconclusive)	39.8 µM (inconclusive)	AC50 [4]: 14.1 µM (inconclusive)
CCN1CN=C(S)N(c2cc(C)ccc2C)C1			39.8 µM (inconclusive)	AC50 [4]: 20 µM (inconclusive)
COC(=O)c1[nH]c(C)c(C(=O)C2=C(O)C(=O)N(CCN(C)C)C2c2cccs2)c1C (stereo not drawn)			14.1 µM (inconclusive)	
CC(C)NC[C@@H](O)c1ccc(O)c2ncccc12				AC50 [3]: inconclusive
CS(=O)(=O)Nc1ccc(Cc2noc(-c3ccc4[nH]cc(CCN)c4c3)n2)cc1 [L-694247]	31.6 µM (inconclusive)			
O=C(O)c1ccccc1C(=O)NCc1ccc(F)cc1			28.2 µM (inconclusive)	
N[C@H](C(=O)O)[C@@H]1[C@@H](C(=O)O)C1(F)F		31.6 µM (inconclusive)		
Cn1c(SCC(=O)NC2CC2)nnc1-c1cccc(NC(=O)c2ccccc2F)c1	17.8 µM (inconclusive)			
CS(=O)(=O)Nc1cccc(-c2ccc3ncnc(NC4CC4)c3c2)c1				AC50 [3]: inconclusive
CCC(C(=O)Nc1ccc(C(C)C)cc1)c1ccccc1 (stereo not drawn)				EC50 [10]: 6.87 µM (active)
CC(C)C(NC(=O)OC(C)(C)C)C(=O)N1CCCC1C(=O)NC(Cc1ccccc1)C(N)=O (stereo not drawn) (Boc-Val-Pro-Phe-NH2; configuration not given here)	31.6 µM (inconclusive)	2 µM (inconclusive)	1.12 µM (inconclusive)	AC50 [4]: 15.8 µM (inconclusive)
C=CCNC(=O)CC(=O)N/N=C/c1cccc(Br)c1			0.2 µM (inconclusive)	
CCOc1ccc(OCCOCCN2CCc3ccccc3C2)cc1	11.2 µM (inconclusive)	20 µM (inconclusive)		EC50 [11]: 0.124 µM (active); EC50 [12]: 21 µM (active); AC50 [4]: 25.1 µM (inconclusive)
CCn1c(COc2ccc(C)cc2)nnc1SCc1ccc(C#N)cc1		28.2 µM (inconclusive)		EC50 [5]: > 150 µM (not active); EC50 [6]: > 150 µM (not active); EC50 [7]: > 150 µM (not active)
O=c1c(-c2ccc(F)c(F)c2)nc2cncnc2n1-c1ccccc1	15.8 µM (inconclusive)			AC50 [4]: 20 µM (inconclusive)

SMILES	AC50 [1]	AC50 [2]	AC50 ([3]; read-out: AC50)	further results
CC(C)(C)C(=O)Nc1cccc(-c2nc3ccccc3c(=O)o2)c1			35.5 µM (inconclusive)	AC50 [4]: 25.1 µM (inconclusive)
Cc1cc(S(=O)(=O)c2cc3ccc(O)c(C)c3oc2=O)ccc1F				EC50 [10]: 5.8 µM (active)
O=C(/C=C/c1ccccc1)NC(NC(=S)Nc1cccc(Cl)c1)C(Cl)(Cl)Cl (stereo not drawn)				EC50 [5]: 3.62 µM (active); EC50 [6]: > 150 µM (not active); EC50 [11]: 1.68 µM (active); EC50 [12]: > 60 µM (inconclusive); EC50 [7]: 6.3 µM (active)
O=C1C[C@H](c2ccccc2)[C@@H](c2ccc(Br)cc2)O1	3.16 µM (inconclusive)			
CCc1cc(C(=O)OC)c(NC(=O)CCCC(=O)O)s1	28.2 µM (inconclusive)	25.1 µM (inconclusive)		
O=C(Nc1cccnc1)c1ccc2snnc2c1	25.1 µM (inconclusive)		17.8 µM (inconclusive)	
CC(C)(C)C1CCc2c(C(=O)N/N=C/c3cccs3)csc2C1 (stereo not drawn)	7.94 µM (inconclusive)			
O=C(O)C1CCCN1C(=O)OCc1ccccc1 (stereo not drawn)			15.8 µM (inconclusive)	
COC(=O)c1ccccc1OCC(=O)N1CCN(c2ccc(OC)cc2)CC1	17.8 µM (inconclusive)			
CCN(CC)c1ccc(NC(=O)CN2CCN(c3ccccc3F)CC2)cc1		28.2 µM (inconclusive)		AC50 [4]: 15.8 µM (inconclusive)
CCOC(=O)c1c(C)n(C)c2ccc(OC(=O)c3ccco3)cc12	1.12 µM (inconclusive)			
c1cncc(-c2cncnc2NC2CCNCC2)c1		12.6 µM (inconclusive)		
COc1ccc2oc(-c3ccc(C)c(NC(=O)c4ccc(N5CCOCC5)c([N+](=O)[O-])c4)c3)nc2c1	3.16 µM (inconclusive)		5.62 µM (inconclusive)	
c1ccc(-c2csc(Nc3nc(N4CCOCC4)nc(N4CCOCC4)n3)n2)cc1	3.16 µM (inconclusive)	5.62 µM (inconclusive)	5.62 µM (inconclusive)	EC50 [11]: 0.104 µM (active); EC50 [12]: > 30 µM (not active); AC50 [4]: 10 µM (inconclusive)
N#CC1=C(N)OC2=C(C(=O)CCC2)C12CCC1(CC2)OCCO1		25.1 µM (inconclusive)		
O=C1c2ccccc2-c2ccc(NC(=O)[C@H]3CCCC[C@@H]3C(=O)O)cc21		1 µM (inconclusive)		
NC(=O)Nc1n[nH]c(-c2ccccc2)n1		3.16 µM (inconclusive)		
C[C@H]1C2=C3C(CC[C@H]4C(OCc5ccc(F)cc5C(F)(F)F)OC[C@](C)([C@@H]34)N(C(=O)OC(C)(C)C)C2)C(CO)C1CO (stereo partly drawn)	39.8 µM (inconclusive)		39.8 µM (inconclusive)	
Clc1ccc(CSc2ncnc3c2ncn3[C@@H]2CCCCO2)cc1		1.58 µM (inconclusive)		
O=S1(=O)[C@@H](c2ccccc2)[C@H](N2CCCCC2)[C@H]1[C@H]1C[C@H]2c3ccccc3[C@@H]1c1ccccc12	7.94 µM (inconclusive)			
O=c1cnc2cncnc2n1Cc1ccc(F)cc1			39.8 µM (inconclusive)	AC50 [4]: 20 µM (inconclusive)
CN(Cc1cc2ccccc2[nH]c1=O)S(C)(=O)=O		28.2 µM (inconclusive)		
